# Test results from ChEMBL document CHEMBL2203023, “Synopsis of some recent tactical application of bioisosteres in drug design” (J Med Chem, 2011).
# Columns and labels:
# in vitro [1] = details: mouse, liver microsomes
# in vitro [2] = details: human, liver microsomes
# physchem [3] = assay: physchem
# physchem [4] = details: octanol/water
# physchem [5] = details: octanol/water, pH 7.4
# [6] = test system: Human immunodeficiency virus 1; assay: microbe, parasite or virus in culture
# cells = details: Homo sapiens, Platelet, Plasma
# physchem [7] = assay: physchem; remark: listed apart in the source
# Platelet [8] = assay: cells; details: Homo sapiens, Plasma
# Platelet [9] = assay: cells; details: Homo sapiens, Plasma; remark: listed apart in the source
# Rattus norvegicus = organism: Rattus norvegicus; assay: animal or person; details: read-out: INH
# in vitro [10] = details: human, Caco-2
# in vivo [11] = details: rat, po
# in vitro [12] = details: human, liver microsomes; remark: listed apart in the source
# in vitro [13] = details: rat, liver microsomes
# in vitro [14] = details: human, Caco-2; remark: listed apart in the source
# physchem [15] = details: octanol/water, pH 7.4; remark: listed apart in the source
# [16] = test system: Respiratory syncytial virus; assay: microbe, parasite or virus in culture; details: human respiratory syncytial virus
# Syrian golden hamster = assay: animal or person; details: Mesocricetus auratus
# in vivo [17] = details: rat
# clinical = details: human, in vivo
smiles,measurement,setting,value
CN(C)CCCCc1ccc(C2COC2)cc1,microsomal CLint,in vitro [1],27 µL/min/mg
same,microsomal CLint,in vitro [2],2 µL/min/mg
same,solubility,physchem [3],4000 µg/mL
CN(C)CCCCc1ccc(C(C)(C)C)cc1,microsomal CLint,in vitro [1],417 µL/min/mg
same,microsomal CLint,in vitro [2],16 µL/min/mg
same,solubility,physchem [3],< 1 µg/mL
same,logP,physchem [4],4.3
same,logD,physchem [5],1.8
CN(C)CCCCc1ccc(C2(C)COC2)cc1,microsomal CLint,in vitro [1],43 µL/min/mg
same,solubility,physchem [3],4400 µg/mL
CN(C)CCC1(Cc2ccc(C(C)(C)C)cc2)COC1,microsomal CLint,in vitro [1],13 µL/min/mg
same,microsomal CLint,in vitro [2],6 µL/min/mg
same,solubility,physchem [3],4100 µg/mL
CN(C)C1(CCCc2ccc(C(C)(C)C)cc2)COC1,microsomal CLint,in vitro [1],580 µL/min/mg
same,microsomal CLint,in vitro [2],13 µL/min/mg
same,solubility,physchem [3],57 µg/mL
CN(C)CCCC1(c2ccc(C(C)(C)C)cc2)COC1,microsomal CLint,in vitro [1],147 µL/min/mg
same,solubility,physchem [3],270 µg/mL
O=C(N[C@H]1c2ccccc2C[C@H]1O)[C@H](Cc1ccccc1)CC(O)C[C@@H](Cc1ccccc1)C(=O)N[C@H]1c2ccccc2C[C@H]1O,EC90,[6],23 nM
NCc1cc(F)c(O)c(F)c1,logP,physchem [4],1.01
O=C(O)/C=C/c1cccc(CCc2nc(-c3ccccc3)c(-c3ccccc3)o2)c1,EC50,cells,660 nM
O=C(O)CCc1cccc(CCc2nc(-c3ccccc3)c(-c3ccccc3)o2)c1,EC50,cells,16000 nM
O=C(O)/C=C/c1cccc(OCc2nc(-c3ccccc3)c(-c3ccccc3)o2)c1,EC50,cells,14000 nM
Oc1c(F)cccc1F,pKa,physchem [7],7.12
O=C(O)COc1cccc(-c2ocnc2-c2nc(-c3ccccc3)c(-c3ccccc3)o2)c1,EC50,Platelet [8],27 nM
same,EC50,Platelet [9],27 nM
O=c1c(O)c(-c2ccccc2)c1=O,pKa,physchem [7],0.37
O=S(=O)(Nc1ccncc1Oc1ccccc1)C(F)(F)F,inhibition in vivo at 30 mg/kg,Rattus norvegicus,54.1%
O=C(c1ccccc1)c1ccn(-c2cc(F)c(O)c(F)c2)c1,logP,physchem [4],3.56
Cc1nccn1-c1ccc(NC(=O)c2cc(C(F)(F)F)nn2-c2ccc3onc(N)c3c2)c(F)c1,Papp,in vitro [10],7.41 ×10⁻⁶ cm/s
Cc1nccn1-c1ccc(NC(=O)c2cc(C(F)(F)F)nn2-c2ccc3onc(N)c3c2)c(C#N)c1,Papp,in vitro [10],< 0.1 ×10⁻⁶ cm/s
CCc1cc(C#N)ccc1Nc1c(N[C@H](C)C(C)(C)C)c(=O)c1=O,bioavailability,in vivo [11],70%
O=C(N[C@H]1c2ccccc2C[C@H]1O)[C@H](Cc1ccccc1)C[Si](O)(O)C[C@@H](Cc1ccccc1)C(=O)N[C@H]1c2ccccc2C[C@H]1O,EC90,[6],170 nM
O=C(CCCN1CC[Si](O)(c2ccc(Cl)cc2)CC1)c1ccc(F)cc1,half-life,in vitro [12],65 min
same,half-life,in vitro [13],18 min
same,Papp,in vitro [14],19.8 ×10⁻⁶ cm/s
same,pKa,physchem [7],9.27
same,solubility,physchem [3],78 µM
same,logD,physchem [15],2.77
COC(=O)N[C@@H](C(=O)NCCCC[C@H](CO)N(CC(C)C)S(=O)(=O)c1ccc(CN)cc1)C(c1ccccc1)c1ccccc1,EC50,[6],30 nM
C=C(C)n1c(=O)n(Cc2nc3ccccc3n2CCCC#N)c2cnccc21,half-life,in vitro [12],11 min
same,EC50,[16],3 nM
COc1ccc(C2[C@@H](CCCc3ccccc3)C(=O)N2c2ccc(OC)cc2)cc1 (stereo not given in full),ED50,Syrian golden hamster,2.2 mg/kg
NCc1ccc(F)c(O)c1F,logP,physchem [4],1.01
O=C(O)CCc1cccc(OCc2nc(-c3ccccc3)c(-c3ccccc3)o2)c1,EC50,cells,> 80000 nM
O=C(O)COc1cccc(/C=C\c2nc(-c3ccccc3)c(-c3ccccc3)o2)c1,EC50,Platelet [8],180 nM
same,EC50,Platelet [9],180 nM
O=C(O)COc1cccc(OCc2nc(-c3ccccc3)c(-c3ccccc3)o2)c1,EC50,cells,1200 nM
O=C(O)COc1cccc(-c2ncoc2-c2nc(-c3ccccc3)c(-c3ccccc3)o2)c1,EC50,Platelet [8],160 nM
same,EC50,Platelet [9],160 nM
Cc1nccn1-c1ccc(NC(=O)c2cc(C(F)(F)F)nn2-c2ccc3onc(N)c3c2)cc1,Papp,in vitro [10],0.82 ×10⁻⁶ cm/s
O=C(O)Cn1ccc(C(=O)c2ccccc2)c1,logP,physchem [4],1.23
COc1ccc(C(CN(C)C)[Si]2(O)CCCCC2)cc1 (racemic),pKa,physchem [7],9.7
same,logD,physchem [15],0.92
same,logP,physchem [4],3.21
COc1ccc(C(CN(C)C)C2(O)CCCCC2)cc1 (racemic) [VENLAFAXINE],logD,physchem [15],0.88
same,logP,physchem [4],3.13
Cc1ccc(-c2cc(C(F)(F)F)nn2-c2ccc(S(N)(=O)=O)cc2)cc1 [CELECOXIB],half-life,in vivo [17],3.5 h
O=C1N(Cc2ccc(CO)cc2)[C@H](Cc2ccccc2)[C@H](O)[C@@H](O)[C@@H](Cc2ccccc2)N1Cc1ccc(CO)cc1 [DMP-323],EC90,[6],57 nM
O=C1[C@H](CC[C@H](O)c2ccc(F)cc2)[C@@H](c2ccc(O)cc2)N1c1ccc(F)cc1 [EZETIMIBE],ED50,Syrian golden hamster,0.04 mg/kg
O=C(CCCN1CCC(O)(c2ccc(Cl)cc2)CC1)c1ccc(F)cc1 [HALOPERIDOL],Papp,in vitro [14],18.9 ×10⁻⁶ cm/s
same,solubility,physchem [3],90 µM
same,logD,physchem [15],2.42
CC#CCC(C)[C@H](O)/C=C/[C@@H]1[C@H]2C/C(=C/CCCC(=O)O)C[C@H]2C[C@H]1O (stereo not given in full) [ILOPROST],half-life,clinical,20 min
CS(=O)(=O)c1ccc(-n2nc(C(F)(F)F)cc2-c2ccc(F)cc2)cc1 [SC-58125],half-life,in vivo [17],221 h
